The numbers were not newly measured in patent US20020016334A1, “Pharmaceutical composition for the treatment of attention deficit hyperactivity disorder (ADHD)” (priority 2000, published 2002), which cites them from elsewhere.

One series relates to working memory deficits. The following applies: brain-lesioned rats (Levin et al. 1993).
In series [1] the test system is performance on serial choice tasks. To be noted: animal studies (Muir et al. 1995).
The test system of another series is clinical ADHD symptoms. The following applies: humans (Levin et al. 1996).

Consider `CN1CCCC1c1cccnc1` (stereo not drawn) [nicotine], for which the “Effect on deficits in working memory” value in the series on working memory deficits was “reverse deficits in working memory”. Further, the “Effect on performance on serial choice tasks” value in series [1] is “improves performance”. Further, the “Effect on clinical ADHD symptoms by Clinical Global Impression scale” value in the series with clinical ADHD symptoms was “significantly improves”.
